Tested on: primary cultures of neonatal cortical neurons exposed to 5 μM Aβ25-35
Test: Protection of cortical neurons against Aβ25-35-induced cell death (MTT reduction analysis)
Assay type: cell-based, rat
Details: for protected neurons from Aβ damage by: 5 μM Aβ; for cell death (%): then 5 μM Aβ25-35 for 40 h, MTT, mean ± S.D., three experiments
Method: In this study, primary cultures of neonatal cortical neurons from the cerebral cortex of Harlan Sprague-Dawley rat pups at postnatal day were used as target cells. Primary cultures of neonatal cortical neurons were prepared from the cerebral cortex of Harlan Sprague-Dawley rat pups at postnatal day 1. Briefly, each pup was decapitated and the cortex was digested in 0.5 mg/mL papain at 37° C. for 15 min. The tissue was dissociated in Hibernate A medium (containing B27 supplement) by aspirating trituration to separate cells. Cells were plated (at the density of 5×10^4 cells/cm^2) onto poly-D-lysine-coated dishes and maintained in Neurobasal medium containing B27 supplement, 10 units/mL penicillin, […], and 0.5 mg/mL glutamine (5% CO2/9% O2) for 3 days. Cells were then exposed to cytosine-β-D-arabinofuranoside (5 μM) for 1 day to inhibit proliferation of non-neuronal cells. The cells were used for the experiment on the fifth day.
The effects of isolated pure compounds on Aβ25-35-treated cell apoptosis were determined by a MTT method for evaluating neuroprotective activity. The mitochondrial dehydrogenase activity was assayed by reduction cleavage of the tetrazolium salt MTT (3-[4,5-dimethylthiazol-2-yl]-2,5-diphenyltetrazolium bromide), to yield a purple dye with absorbance read at about 570 nm. Results are expressed as percentage of control absorbance. Cortical neurons prepared as described above were incubated with vehicle (0.1% DMSO) or various concentrations of the compounds for 2 h then exposed to 5 μM Aβ for 40 h. The cell viability was assessed by MTT reduction analysis. Cells were incubated with minimum essential medium containing 0.5 mg/mL MTT for 1 h. The medium was aspirated, and the formazan particle was dissolved with DMSO. The absorbance at 600 nm was measured using an enzyme-linked immunosorbent assay reader. Results are expressed as means±S.D. and were analyzed by ANOVA with post hoc multiple comparison with a Bonferroni test.

Molecule | protected neurons from Aβ damage by (at concentration of 10 μM) [%] | cell death (%) (compound 1 μM for 2 h) | cell death (%) (compound 5 μM for 2 h) | cell death (%) (compound 10 μM for 2 h) | cell death (%) (compound 20 μM for 2 h) | protected neurons from Aβ damage by (at concentration of 20 μM) [%] | protected neurons from Aβ damage by (at concentration of 5 μM) [%]
C=C1CC[C@@H]2[C@](C)(CC[C@H](O)[C@]2(C)CO)[C@H]1/C=C/C1CCOC1=O (stereo partly drawn) [Compound 3, 13-epi-3β,19-dihydroxylabda-8(17), 11E-dien-16,15-olide] | 36.7 | 45.1 ± 3.5 | 39.6 ± 3.4 | 36.7 ± 8.7 | 29.3 ± 10.6 | – | –
Ac-DEVD-CHO [reference compound] | – | 35.8 ± 3.5 | 30.2 ± 5.5 | 24.5 ± 4.6 | 23.1 ± 1.6 | – | –
C=C1CC[C@H]2[C@@](C)(CO)CCC[C@]2(C)[C@H]1CCC1=CCOC1=O [Compound 4, 19-hydroxylabda-8(17),13-dien-16,15-olide] | 28.9 | 41.2 ± 3.4 | 34.8 ± 3.2 | 28.9 ± 8.1 | 32.6 ± 7.2 | – | –
C=C1CC[C@@H]2[C@](C)(CC[C@H](O)[C@]2(C)CO)[C@H]1/C=C/[C@@H]1CCOC1=O [Compound 2, 3β,19-dihydroxylabda-8(17), 11E-dien-16,15-olide] | 29.5 | 43.8 ± 9.5 | 34.9 ± 2.6 | 29.5 ± 6.4 | 26.3 ± 9.4 | – | –
C=C1CCC2C(C)(CO)C(O)CCC2(C)C1C=CC1=CCOC1=O (centres unmarked) [Compound 5, 14-deoxy-11,12-didehydroandrographolide] | – | 40.7 ± 3.3 | 35.7 ± 1.9 | 30.8 ± 5.7 | 29.5 ± 5.0 | 29.5 | –
C=C1CCC2[C@@](C)(CO)CCC[C@]2(C)[C@H]1CCC1CCOC1=O (some centres unmarked) [Compound 1, 19-hydroxylabda-8(17)-en-16,15-olide] | – | 34.4 ± 3.4 | 25.3 ± 5.7 | 28.1 ± 5.7 | 30.8 ± 5.0 | – | 25.3

From US7745647B2, “Diterpenes from the fruiting body of Antrodia camphorata and pharmaceutical compositions thereof” (Kang Jian Biotech Corp, Ltd., priority 2006, dated 2010)
